Test results as given in patent US12390437B2, “Itaconic acid derivatives and uses thereof intreating an inflammatory disease or a disease associated with an undesirable immune response” (Sitryx Therapeutics Limited, priority 2019, dated 2025).

Assays:
[1] = test system: NRF2; experiment: NRF2 +/-GSH activation assay (DiscoverX PathHunter NRF2 translocation kit, U2OS cells); type: cell-based; conditions: Homo sapiens, GSH condition not stated in Table 5
Procedure: Measuring Compound Activation Effects on the Anti-Inflammatory Transcription Factor NRF2 in DiscoverX PathHunter NRF2 Translocation Kit
Potency and efficacy of compounds of formula (IW-1) against the target of interest to activate NRF2 (nuclear factor erythroid 2-related factor 2) were determined using the PathHunter NRF2 translocation kit (DiscoverX). The NRF2 translocation assay was run using an engineered recombinant cell line, utilising enzyme fragment complementation to determine activation of the Keap1-NRF2 protein complex and subsequent translocation of NRF2 into the nucleus. Enzyme activity was quantified using a chemiluminescent substrate consumed following the formation of a functional enzyme upon PK-tagged NRF2 translocation into the nucleus.
The assay was run under either +/−GSH (glutathione) conditions to determine the attenuating activities of GSH against target compounds.
Additionally, a defined concentration of dimethyl fumarate was used as the ‘High’ control to normalise test compound activation responses to.
U2OS PathHunter eXpress cells were thawed from frozen prior to plating. Following plating, U2OS cells were incubated for 24 hrs (37° C./5% CO2) in commercial kit provided cell medium.
Following 24 hrs of U2OS incubation, cells were directly treated with an appropriate final concentration of compound, for −GSH conditions, or for +GSH conditions, an intermediate plate containing 6× working concentrations of compound stocks was prepared in a 6 mM working concentration of GSH solution (solubilised in sterile PBS). Following a 30 minute compound-GSH pre-incubation (37° C./5% CO2) for +GSH treatment, plated U2OS cells were incubated with an appropriate final concentration of compound and GSH.
Following compound (+/−GSH) treatment, the U2OS plates were incubated for a further 6 hours (37° C./5% CO2) before detection reagent from the PathHunter NRF2 commercial kit was prepared and added to test plates according to the manufacturer's instructions. Subsequently, the luminescence signal detection in a microplate reader was measured (PHERAstar®, BMG Labtech).
Percentage activation was calculated by normalising the sample data to the high and low controls used within each plate (+/−DMF). Percentage activation/response was then plotted against compound concentration and the 50% activation concentration (EC50) was determined from the plotted concentration-response curve.

[2] = test system: IL-6 cytokine output from THP-1s; experiment: THP-1 AlphaLISA IL-6 cytokine assay; type: cell-based, human; conditions: Homo sapiens; PMA-differentiated THP-1 cells, LPS 24 hr then Nigericin 1 hour
Procedure: Measuring Inhibitory Effects on IL-1β and IL-6 Cytokine Output from THP-1s
The cytokine inhibition profiles of compounds of formula (IW-1) were determined in a differentiated THP-1 cell assay. All assays were performed in RPMI-1640 growth medium (Gibco), supplemented with 10% fetal bovine serum (FBS; Gibco), 1% penicillin-streptomycin and 1% sodium pyruvate unless specified otherwise. The IL-1β and IL-6 cytokine inhibition assays were each run in a background of differentiated THP-1 cells as described below. All reagents described were from Sigma-Aldrich unless specified otherwise. Compounds were prepared as 10 mM DMSO stocks.
THP-1 cells were expanded as a suspension up to 80% confluence in appropriate growth medium. Cells were harvested, suspended, and treated with an appropriate concentration of phorbol 12-myristate 13-acetate (PMA) over a 72 hr period (37° C./5% CO2).
Following 72 hrs of THP-1 cell incubation, cellular medium was removed and replaced with fresh growth media containing 1% of FBS. Working concentrations of compounds were prepared separately in 10% FBS treated growth medium and pre-incubated with the cells for 30 minutes (37° C./5% CO2). Following the 30 minute compound pre-incubation, THP-1s were treated with an appropriate concentration of LPS and the THP-1s were subsequently incubated for a 24 hr period (37° C./5% CO2). An appropriate final concentration of Nigericin was then dispensed into the THP-1 plates and incubated for 1 hour (37° C./5% CO2) before THP-1 supernatants were harvested and collected in separate polypropylene 96-well holding plates.
Reagents from each of the IL-1β and IL-6 commercial kits (Perkin Elmer) were prepared and run according to the manufacturer's instructions. Subsequently, fluorescence signal detection in a microplate reader was measured (EnVision® Multilabel Reader, Perkin Elmer).
Percentage inhibition was calculated per cytokine by normalising the sample data to the high and low controls used within each plate (+/−LPS respectively). Percentage inhibition was then plotted against compound concentration and the 50% inhibitory concentration (IC50) was determined from the resultant concentration-response curve.

[3] = test system: IL-1β cytokine output from THP-1s; experiment: THP-1 AlphaLISA IL-1β cytokine assay; type: cell-based, human; conditions: Homo sapiens, THP-1, PMA-differentiated THP-1 cells, LPS 24 hr then Nigericin 1 hour; read-out: IL-1β (IC50)
In short: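 PMA-differentiated (72 h) THP-1 cells pretreated 30 min with compound, LPS-stimulated 24 h, then nigericin 1 h at 37 °C. Supernatant IL-1β and IL-6 by AlphaLISA; % inhibition normalised to ±LPS controls, IC50 from concentration-response curves.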

[4] = Mouse pharmacokinetic study, intravenous dosing; type: in vivo; conditions: male, C57BL/6, mouse, iv, plasma, 10 mg/kg i.v., read-out: Parent compound concentration following intravenous administration
Procedure: Pharmacokinetic studies were carried out in 6-8-week-old male C57BL/6 mice having free access to food and water. Intravenous dosing was conducted at 10 mg/kg (5 mL/kg; vehicle: 10% DMSO-90% (25% HP-13-CD in water)) via tail vein injection, with sampling at 3 min, 8 min, 15 min, 30 min, 1, 2, 4, 6 and 8 hours, i.e., 9 time points in total (N=3/time point), using semi-serial bleeding for plasma. Oral compound administration, via gavage, was carried out at 100 mg/kg (10 mL/kg; vehicle: 5% DMSO-95% (0.5% HPMC+0.1% Tween 80 in water)), with sampling at 5 min, 15 min, 30 min, 1, 2, 4, 6, 8 and 24 hours, i.e., 9 time points in total (N=3/time point), using semi-serial bleeding for plasma.
For both intravenous and oral routes, the mice were restrained manually at the designated time points, with ca. 110 μL of blood being taken into K2EDTA tubes via the facial vein. Blood samples were put on ice and centrifuged to obtain plasma samples from which the concentration at each time point was measured by LC-MS/MS.

| SMILES | IC50 [2] | IC50 [3] | further results |
| --- | --- | --- | --- |
| C=C(CC(=O)OCCCCCCCC)C(=O)OC1CN(C(C)=O)C1 [Example 50, 1-(1-acetylazetidin-3-yl) 4-octyl 2-methylenesuccinate] | 1.7 µM | 2.7 µM | Emax ([1]; U2OS, normalised to dimethyl fumarate 'High' control, read-out: NRF2 activation Emax): 225%; EC50 ([1]; U2OS PathHunter cells, 6 hours, read-out: NRF2 activation EC50): 3.2 µM |
| C=C(CC(=O)O[C@H](C)CCCCCC)C(=O)OC1CCOCC1 [Example 73, (R)-4-(octan-2-yl) 1-(tetrahydro-2H-pyran-4-yl) 2-methylenesuccinate] | 23.5 µM | 24.1 µM | – |
| C=C(CC(=O)OCCCCCCCC)C(=O)OC(C)C(=O)O (centres unmarked) [Example 79, 2-((2-methylene-4-(octyloxy)-4-oxobutanoyl)oxy)propanoic acid] | 13.5 µM | 11.9 µM | – |
| C=C(CC(=O)OCC(C)(C)C)C(=O)OCCC(=O)O [Example 83, 3-((2-methylene-4-(neopentyloxy)-4-oxobutanoyl)oxy)propanoic acid] | 96.9 µM | 34.2 µM | – |
| C=C(CC(=O)OCCS(=O)(=O)c1ccc(C)cc1)C(=O)OCC(=O)O [Example 97, 2-((2-methylene-4-oxo-4-(2-tosylethoxy)butanoyl)oxy)acetic acid] | 30.3 µM | 29.3 µM | – |
| C=C(CC(=O)OCCCCCCCC)C(=O)OCC(=O)N1CCN(C)CC1 [Example 107, 1-(2-(4-methylpiperazin-1-yl)-2-oxoethyl) 4-octyl 2-methylenesuccinate] | 2.7 µM | 10 µM | – |
| C=C(CC(=O)OCCCCCCCC)C(=O)OCCC(=O)N1CCOCC1 [Example 108, 1-(3-morpholino-3-oxopropyl) 4-octyl 2-methylenesuccinate] | 3.1 µM | 11.1 µM | – |
| C=C(CC(=O)OCCCCCCCC)C(=O)OCCC(=O)N(CC)CC [Example 109, 1-(3-(diethylamino)-3-oxopropyl) 4-octyl 2-methylenesuccinate] | 6.8 µM | 10.6 µM | – |
| C=C(CC(=O)OCCCCCCCC)C(=O)OCCC(=O)NC [Example 110, 1-(3-(methylamino)-3-oxopropyl) 4-octyl 2-methylenesuccinate] | 4.4 µM | 8.5 µM | – |
| C=C(CC(=O)OC1CCCCC1)C(=O)OC(C)C(=O)O (centres unmarked) [Example 111, 2-((4-(cyclohexyloxy)-2-methylene-4-oxobutanoyl)oxy)propanoic acid] | 70.9 µM | 100 µM | – |
| C=C(CC(=O)OCC1CCC(F)(F)CC1)C(=O)OCC(=O)O [Example 113, 2-((4-((4,4-difluorocyclohexyl)methoxy)-2-methylene-4-oxobutanoyl)oxy)acetic Acid] | 48.5 µM | 100 µM | – |
| C=C(CC(=O)OCCCOCC)C(=O)OCC(=O)O [Example 114, 2-((4-(3-ethoxypropoxy)-2-methylene-4-oxobutanoyl)oxy)acetic acid] | 56.2 µM | 100 µM | – |
| C=C(CC(=O)OC1CC2CCC1C2)C(=O)OCC(=O)O (centres unmarked) [Example 115, 2-((4-(bicyclo[2.2.1]heptan-2-yloxy)-2-methylene-4-oxobutanoyl)oxy)acetic acid] | 36.3 µM | 59.5 µM | – |
| C=C(CC(=O)OC1CCC1)C(=O)OCC(=O)O [Example 116, 2-((4-cyclobutoxy-2-methylene-4-oxobutanoyl)oxy)acetic acid] | 60.4 µM | 100 µM | – |
| C=C(CC(=O)OC1CCCCC1)C(=O)OCC(C)(C)C(=O)O [Example 117, 3-((4-(cyclohexyloxy)-2-methylene-4-oxobutanoyl)oxy)-2,2-dimethylpropanoic acid] | 43.9 µM | 100 µM | – |
| C=C(CC(=O)OCCCCCC)C(=O)OCC(=O)NS(=O)(=O)N(C)C [Example 118, 1-(2-((N,N-dimethylsulfamoyl)amino)-2-oxoethyl) 4-hexyl 2-methylenesuccinate] | 14 µM | 16.2 µM | concentration at 0.05 h ([4]; time 0.05 h): 3050 ng/mL; concentration at 0.133 h ([4]; time 0.133 h): 161 ng/mL; concentration at 0.25 h ([4]; time 0.25 h): 8 ng/mL; concentration at 0.5 h ([4]; time 0.5 h): 2.4 ng/mL; concentration at 1 h ([4]; time 1 h): < 0.8 ng/mL; concentration at 2 h ([4]; time 2 h): < 0.8 ng/mL; concentration at 4 h ([4]; time 4 h): < 0.8 ng/mL; concentration at 6 h ([4]; time 6 h): < 0.8 ng/mL; concentration at 8 h ([4]; time 8 h): < 0.8 ng/mL |
| C=C(CC(=O)OCCCCCC)C(=O)OCC(=O)NS(C)(=O)=O [Example 119, 4-hexyl 1-(2-(methylsulfonamido)-2-oxoethyl) 2-methylenesuccinate] | 47.5 µM | 82.4 µM | – |
| C=C(CC(=O)OCCCCCC)C(=O)OCCC(=O)NS(C)(=O)=O [Example 120] | 7.7 µM | 26.9 µM | – |
| C=C(C(=O)OCCS(C)(=O)=O)C(C)C(=O)OCCCCCCCC (centres unmarked) [Example 138, 4-(2-(methylsulfonyl)ethyl) 1-octyl 2-methyl-3-methylenesuccinate] | 5.2 µM | 6.8 µM | – |
| C=C(C(=O)O[C@H]1CCOC1)C(C)C(=O)OCCCCCCCC (stereo partly drawn) [Example 139, 1-octyl 4-((S)-tetrahydrofuran-3-yl) 2-methyl-3-methylenesuccinate] | 15.1 µM | 21.7 µM | – |
| C=C(CC(=O)OCCCCCCCC)C(=O)OC1CC(F)(F)C1 [Example 185, 1-(3,3-difluorocyclobutyl) 4-octyl 2-methylenesuccinate] | 8.8 µM | 21.6 µM | – |
